In patent publication US9910044B2, “Methods for identifying arthropod repellents based on modulation of specific ionotropic receptors, and compounds and compositions identified by such methods” (The Regents of the University of California, priority 2013, dated 2018):
Where two headings read alike, the source gives them in different places.

How the values were obtained:
Drosophila [1] = assay: Drosophila olfactory avoidance assay, 2-choice trap; assay type: in vivo, Drosophila melanogaster
Protocol: For each trial, three- to six-day old flies (10 males and 10 females) were starved for 18 hours. Flies were transferred to a cylindrical 38.1 mm D×84.1 mm H chamber containing two traps each fashioned from an upturned 1.5 ml microcentrifuge tube with 2 mm removed from the tapered end. A pipette tip (1000 μl), was cut 2.5 cm from narrow end and 0.5 cm from top and inserted into the bottom of the inverted microcentrifuge tube. A 15 mm×16 mm #1 Whatmann filter paper was inserted in between the pipette tip and tip of microcentrifuge tube in a manner that entering flies cannot make physical contact with it. With reference to FIG. 2A, for the 1-choice test, a 50 μl sample of test odorant (50% DEET in DMSO) was applied to filter paper and 125 μl of 10% apple cider vinegar (ACV) is applied to the upturned lid of the microcentrifuge tube as attractant. With reference again to FIG. 2A, for the 2-choice test, two 10% ACV lured traps were placed in the cylinder, one with DMSO as the solvent (right) and another with DEET (left).

Drosophila [2] = assay type: in vivo, Drosophila melanogaster
[3] = target: human acetylcholinesterase (Homo sapiens, UniProt P22303); details: Corbel et al., BMC Biol, 7, 2009; cited from earlier work
Sequence of human acetylcholinesterase (P22303 32-614): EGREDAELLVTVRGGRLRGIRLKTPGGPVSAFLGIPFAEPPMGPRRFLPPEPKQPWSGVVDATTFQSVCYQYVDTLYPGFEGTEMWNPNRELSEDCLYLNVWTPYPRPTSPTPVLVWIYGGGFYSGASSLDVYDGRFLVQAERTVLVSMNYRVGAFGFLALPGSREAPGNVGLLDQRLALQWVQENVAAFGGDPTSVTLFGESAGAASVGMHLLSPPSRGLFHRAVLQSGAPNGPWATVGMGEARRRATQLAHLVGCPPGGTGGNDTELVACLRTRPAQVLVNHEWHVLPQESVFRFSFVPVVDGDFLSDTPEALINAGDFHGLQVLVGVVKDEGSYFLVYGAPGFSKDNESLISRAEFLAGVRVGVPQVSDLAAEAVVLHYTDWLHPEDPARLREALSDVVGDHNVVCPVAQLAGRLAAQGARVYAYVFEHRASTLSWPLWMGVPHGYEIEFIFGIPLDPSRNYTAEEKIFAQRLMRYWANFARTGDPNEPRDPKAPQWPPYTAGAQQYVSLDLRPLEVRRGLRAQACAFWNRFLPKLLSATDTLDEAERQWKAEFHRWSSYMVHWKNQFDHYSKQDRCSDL

[4] = system: mammalian cation channels; details: cited from earlier work

In the case of CCN(CC)C(=O)c1cccc(C)c1 [DEET, N,N-Diethyl-m-toluamide], the “avoidance response to volatile DEET” value (Drosophila [1]; Ir40a neuron-silenced flies (Ir40a-promoter-Ga14, UAS-kir), 10% ACV lure) is reported as “avoidance was observed to be lost”, the DEET avoidance (Drosophila [1]; Ir40a-RNAi flies (Ir40a-G4 with UAS-Ir40a-RNAi) compared to control flies, 10% ACV lure) is reported as “loss of DEET avoidance” and the “olfactory DEET avoidance” value (Drosophila [1]; Ir93a-/- and Ir25a receptor mutant flies, FIG. 6B) is reported as “found to be involved in olfactory DEET avoidance”. For the same compound, the “olfactory avoidance to DEET” value (Drosophila [1]; two DGRP lines with mutations in Ir40a (RAL-158, RAL-272), DEET 50% in DMSO, 10% ACV lure) was “nearly abolished”, the “avoidance response to volatile DEET” value (Drosophila [1]; two control lines of the Ir40a-promoter-Ga14/UAS-kir experiment, 10% ACV lure) was “robust and reproducible avoidance response” and the “avoidance response to volatile DEET” value (Drosophila [1]; wild-type Canton-S, DEET 50% in DMSO, 10% ACV lure) was “robust and reproducible avoidance response”. For the same compound, the “avoidance of DEET-treated trap” value (Drosophila [2]; Ir25a neuron-TNTG flies (Ir25a-Ga14/UAS-TNTG), 10% ACV lure) was “substantially decreased”, the “avoidance of DEET-treated trap” value (Drosophila [2]; Ir40a neuron-TNTG flies (Ir40a-Ga14/UAS-TNTG), versus controls, 10% ACV lure) was “substantially decreased” and the “avoidance of DEET-treated trap” value (Drosophila [2]; control flies Ir25a-Ga14/UAS-IMPTV, 10% ACV lure) was “observed to avoid DEET”. For the same compound, the “avoidance of DEET-treated trap” value (Drosophila [2]; control flies Ir40a-G4/+ and UAS-TNTG/+, 10% ACV lure) was “observed to avoid DEET”, the “avoidance of DEET-treated trap” value (Drosophila [2]; in vivo) was “observed to avoid DEET” and the “olfactory avoidance to DEET” value (Drosophila [2]; in vivo) was “nearly abolished”. For the same compound, the “inhibition of human acetylcholinesterase” value [3] was “inhibit” and the “inhibition of mammalian cation channels” value [4] was “inhibit”.
